“Also recorded” adds a separate entry of the source.
How the values were obtained:
[1] = molecular target: T1, Brd4 bromodomain 1 (BRD4(1)) (Homo sapiens, UniProt O60885); experiment: Inhibition of tetra-acetylated histone H4 binding to BET bromodomain, HTRF/FRET; conditions: HTRF, 2 h incubation at room temperature
T1 construct: made in house; host or cells: E. coli BL21(DE3)
Protocol: Proteins are cloned and overexpressed with a N-terminal 6×His tag, then purified by nickel affinity followed by size exclusion chromatography. Briefly, E. coli BL21(DE3) cells are transformed with a recombinant expression vector encoding N-terminally Nickel affinity tagged bromodomains from Brd2, Brd3, Brd4. Cell cultures were incubated at 37° C. with shaking to the appropriate density and induced overnight with IPTG. The supernatant of lysed cells was loaded onto Ni-IDA column for purification. Eluted protein was pooled, concentrated and further purified by size exclusion chromatography. Fractions representing monomeric protein were pooled, concentrated, aliquoted, and frozen at −80° C. for use in subsequent experiments.
Binding of tetra-acetylated histone H4 and BET bromodomains is confirmed by a Homogenous Time Resolved Fluorescence Resonance Energy Transfer (HTRF®) method, N-terminally His-tagged bromodomains (200 nM) and biotinylated tetra-acetylated historic H4 peptide (25-50 nM, Millipore) are incubated in the presence of Europium Cryptate-labeled streptavidin (Cisbio Cat. #610SAKLB) and XL665-labeled monoclonal anti-His antibody (Cisbio Cat. #61HISXLB) in a white 96 well microtiter plate (Greiner). For inhibition assays, serially diluted test compound is added to these reactions in a 0.2% final concentration of DMSO. Duplicate wells are used for each concentration tested. Final buffer concentrations are 30 mM HEPES pH 7.4, 30 mM NaCl, 0.3 mM CHAPS, 20 mM phosphate pH 7.0, 320 mM KF, 0.08% BSA. After a 2 h incubation at room temperature, fluorescence is measured at 665 and 620 nm with a SynergyH4 plate reader (Biotek). The binding inhibitory activity is shown by a decrease in 665 nm relative to 620 nm fluorescence. IC50 values are determined from a dose response curve.

c-myc = experiment: Inhibition of cMYC expression in cancer cell lines (mRNA, real-time PCR); assay type: cell-based; conditions: Human AML MV4-11 cells, 3 h
Protocol: MV4-11 cells (CRL-9591) were plated at a density of 2.5×10^4 cells per well in 96 well U-bottom plates and treated with increasing concentrations of test compound or DMSO) (0.1%) in IMDM media containing 10% FBS and penicillin/streptomycin, and incubated for 3 h at 37° C. Triplicate wells were used for each concentration. Cells were pelleted by centrifugation and harvested using the mRNA Catcher PLUS kit according to manufacturer's instructions. The eluted mRNA isolated was then used in a one-step quantitative real-time PCR reaction, using components of the RNA UltraSense™ One-Step Kit (Life Technologies) together with Applied Biosystems TaqMan® primer-probes for cMYC and Cyclophilin. Real-time PCR plates were run on a ViiA™7 real time PCR machine (Applied Biosystems), data was analyzed, normalizing the Ct values for cMYC to an internal control, prior to determining the fold expression of each sample, relative to the control.

hIL-6 mRNA = experiment: Inhibition of hIL-6 mRNA transcription in LPS-stimulated U937 cells; assay type: cell-based; conditions: Homo sapiens, U-937; U937 cells differentiated with PMA, 1 h pretreatment, LPS 3 h; read-out: IL-6 activity
Protocol: Human leukemic monocyte lymphoma U937 cells (CRL-1593.2) were plated at a density of 3.2×10^4 cells per well in a 96-well plate in 100 μL RPMI-1640 containing 10% FBS and penicillin/streptomycin, and differentiated into macrophages for 3 days in 60 ng/mL PMA ([…]) at 37° C. in 5% CO2 prior to the addition of compound. The cells were pretreated for 1 h with increasing concentrations of test compound in 0.1% DMSO prior to stimulation with 1 ug/mL lipopolysaccharide from Escherichia coli. Triplicate wells were used for each concentration. The cells were incubated at 37° C., 5% CO2 for 3 h before the cells were harvested. At time of harvest, media was removed and cells were rinsed in 200 μL PBS. Cells were harvested using the mRNA Catcher PLUS kit according to manufacturer's instructions. The eluted mRNA was then used in a one-step quantitative real-time PCR reaction using components of the RNA UltraSense™ One-Step Kit (Life Technologies) together with Applied Biosystems TaqMan® primer-probes for hIL-6 and Cyclophilin. Real-time PCR plates were run on a ViiA™7 real time PCR machine (Applied Biosystems), data was analyzed, normalizing the Ct values for hIL-6 to an internal control, prior to determining the fold expression of each sample, relative to the control.

Human AML MV-4-11 cells = experiment: Inhibition of cell proliferation in cancer cell lines; assay type: cell-based; conditions: MV4-11, 72 h
Protocol: MV4-11 cells (CRL-9591) were plated at a density of 5×10^4 cells per well in 96 well flat bottom plates and treated with increasing concentrations of test compound or DMSO (0.1%) in IMDM media containing 10% FBS and penicillin/streptomycin. Triplicate wells were used for each concentration and a well containing only media was used as a control. Plates were incubated at 37° C., 5% CO2 for 72 h before adding 20 μL of the CellTiter Aqueous One Solution (Promega) to each well and incubated at 37° C., 5% CO2 for an additional 3-4 h. The absorbance was read at 490 nm in a spectrophotometer and the percentage of cell titer relative to DMSO-treated cells was calculated after correcting for background by subtracting the blank well's signal. IC50 values were calculated using the GraphPad Prism software.

MV4-11 cells = experiment: Washout proliferation: effect of covalent binding on durability of proliferation; assay type: cell-based, Human; conditions: IC90 concentration for 24 h, then washout; for Percent proliferation relative to DMSO, 24 h: 24 h post washout; for Percent proliferation relative to DMSO, 48 h: 48 h post washout; for Percent proliferation relative to DMSO, 72 h: 72 h post washout
Protocol: MV4-11 cells (CRL-9591) were plated at a density of 5×10^4 cells per well in 96 well flat bottom plates and treated with IC90 concentration of covalent vs. non-covalent control compound or DMSO (0.1%) in IMDM media containing 10% FBS and penicillin/streptomycin. Triplicate wells were used for each concentration and a well containing only media is used as a control. Plates were incubated at 37° C., 5% CO2 for 24 h after which the compounds were removed, replaced with media, and proliferation was measured at 24, 48 and 72 hours post washout by adding 20 μL of the Cell Titer Aqueous One Solution (Promega) to each well and incubated at 37° C., 5% CO2 for an additional 3-4 h. The absorbance was read at 490 nm in a spectrophotometer and the percentage of cell titer relative to DMSO-treated cells was calculated after correcting for background by subtracting the blank well's signal. IC50 values are calculated using the GraphPad Prism software.

BET bromodomains = experiment: Thermal shift assay to monitor covalent binding to BET bromodomains; conditions: 100 μM compound, 5 μM protein, 30 minutes or 4 hours at room temperature
Protocol: 5 μM of purified bromodomain protein was incubated with 5× SYPRO® Orange (Molecular Probes) at a final concentration of 20 mM HEPES pH 7.4, 100 mM NaCl in the presence of 100 μM compound or DMSO (0.2%) in a fast 96 well optical plate (Applied Biosystems). Samples were incubated at room temperature for 30 minutes or 4 hours and ramped from 25° C. to 95° C. in a ViiA7 real-time PCR machine (Applied Biosystems). The resulting fluorescence data was analyzed and melting temperatures calculated using Protein Thermal Shift™ Software v1.0 (Life Technologies). A thermal shift indicates covalent binding of the inhibitor to the protein.

SMILES | IC50 [1] [nM] | IC50 (c-myc) [nM] | IC50 (hIL-6 mRNA) [nM] | IC50 (Human AML MV-4-11 cells) [nM] | Percent proliferation relative to DMSO, 0 h (MV4-11 cells) [%] | Percent proliferation relative to DMSO, 24 h (MV4-11 cells) [%] | Percent proliferation relative to DMSO, 48 h (MV4-11 cells) [%] | Percent proliferation relative to DMSO, 72 h (MV4-11 cells) [%] | Thermal shift: covalent binding to bromodomain protein (BET bromodomains)
Cc1noc(C)c1-c1cc(N)c2ncn(Cc3ccc(C4CO4)cc3)c2c1 (stereo not drawn) [Example 4, 6-(Dimethyl-1,2-oxazol-4-yl)-1-{[4-(oxiran-2-yl)phenyl]methyl}-1H-1,3-benzodiazol-4-amine] | 300 to 3000 | 300 to 3000 | 300 to 3000 | 300 to 3000 | 41 | 0.2 | 15 | 13 | bind covalently; also recorded: time-dependent formation of the covalent complex
Cc1noc(C)c1-c1cnc2nc(C)n(Cc3ccc(CCCl)cc3)c2c1 [Example 5, 4-(1-(4-(2-Chloroethyl)benzyl)-2-methyl-1H-imidazo[4,5-b]pyridin-6-yl)-3,5-dimethylisoxazole] | ≤ 300 | 300 to 3000 | – | – | – | – | – | – | –
Cc1noc(C)c1-c1cc(N)c(=O)n(Cc2ccc(C3CO3)cc2)c1 (stereo not drawn) [Example 3, 3-amino-5-(3,5-dimethylisoxazol-4-yl)-1-(4-(oxiran-2-yl)benzyl)pyridin-2(1H)-one] | ≤ 300 | 3000 to 30000 | 300 to 3000 | 3000 to 30000 | – | – | – | – | –

Now from value to compound, other results behind:

IC50 [1] [nM] | IC50 (c-myc) [nM] | IC50 (hIL-6 mRNA) [nM] | IC50 (Human AML MV-4-11 cells) [nM] | SMILES | Percent proliferation relative to DMSO, 0 h (MV4-11 cells) [%] | Percent proliferation relative to DMSO, 24 h (MV4-11 cells) [%] | Percent proliferation relative to DMSO, 48 h (MV4-11 cells) [%] | Percent proliferation relative to DMSO, 72 h (MV4-11 cells) [%] | Thermal shift: covalent binding to bromodomain protein (BET bromodomains)
≤ 300 | – | – | – | Cc1noc(C)c1-c1cnc2nc(C)n(Cc3ccc(CC4CO4)cc3)c2c1 (stereo not drawn) [Example 7, 3,5-Dimethyl-4-(2-methyl-1-(4-(oxiran-2-ylmethyl)benzyl)-1H-imidazo[4,5-b]pyridin-6-yl)isoxazole] | – | – | – | – | –
≤ 300 | 3000 to 30000 | 3000 to 30000 | 3000 to 30000 | Cc1noc(C)c1-c1ccc(=O)n(Cc2ccc(C3CO3)c(F)c2)c1 (stereo not drawn) [Example 1, 5-(Dimethyl-1,2-oxazol-4-yl)-1-(3-fluoro-4-(oxiran-2-yl)benzyl)pyridin-2(1H)-one] | 30 | 2 | 10 | 5 | bind covalently; also recorded: time-dependent formation of the covalent complex
≤ 300 | – | – | – | Cc1noc(C)c1-c1cnc2nc(C)n(Cc3ccc(C(=O)CCl)cc3)c2c1 [Example 6, 2-Chloro-1-(4-((6-(3,5-dimethylisoxazol-4-yl)-2-methyl-1H-imidazo[4,5-b]pyridin-1-yl)methyl)phenyl)ethanone] | – | – | – | – | –
≤ 300 | 3000 to 30000 | 3000 to 30000 | 3000 to 30000 | Cc1noc(C)c1-c1ccc(=O)n(Cc2ccc(C3CO3)cc2)c1 (stereo not drawn) [Example 2, 5-(dimethyl-1,2-oxazol-4-yl)-1-{[4-(oxiran-2-yl)phenyl]methyl}-1,2-dihydropyridin-2-one] | – | – | – | – | –

— patent publication US10231953B2, “Inhibitors of bromodomains” (Zenith Epigenetics Ltd., priority 2014, dated 2019)
